From patent publication US5607934A, “Piperazine derivatives and salts thereof” (Otsuka Pharmaceutical Co., Ltd., priority 1993, dated 1997)
Converted amounts (≈) assume the structure as drawn. Blank lines part the entries; values can stand above or below the molecule they belong to.

How the values were obtained:
[1] = system: superoxide radicals (O2^-) released from the peritoneal macrophage cells of guinea pig; test: Inhibitory effect against superoxide radicals (O2^-) released from the peritoneal macrophage cells of guinea pig by stimulation (FMLP); type: cell-based; settings: Cavia porcellus, Peritoneal macrophage cell; guinea pig peritoneal macrophages 2×10^6 cells/ml; FMLP 10^-7 M; cytochrome C reduction, OD550
Experimental: Inhibitory effect against superoxide radicals (O2^-) released from the peritoneal macrophage cells of guinea pig by stimulation:
Mineral oil (15 ml)was intraperitoneally administered to a guinea pig, then 96 hours after the administration, the peritoneal macrophage cells were sampled.
Superoxide radicals (O2^-) were determined by means of reduction of cytochrome C method according to the procedure described in an article written by T. Matsumoto, K. Takeshige and S. Minakami: Biochemical and Biophysical Research Communications, Vol. 88, No. 3, pp. 974-979, (1979).
Into 1 ml of 80 μM-cytochrome C solution, the peritoneal macrophage cells were added to make the final concentration of 2×10^6 cells/ml, then each one of the test compounds of the present invention was added thereto to make the test group sample. On the other hand, water was added in place of the test compound of the present invention to make the control group sample. Each of the test group samples and the control group samples were subjected to pre-incubation at 37° C. for 1 minute.
As to the stimulating agent for releasing superoxide radicals (O2^-), FMLP (formylmethionyl leucyl phenylalanine)was added to each one of the test sample solutions and the control group samples to make the final concentration of FMLP to 10^-7 M, then the sample solutions were subjected to additional reaction by incubation for 1 minute.
Difference between the optical absorbances measured at 550 nm (OD550) of both test group samples and control group samples were determined, the 50% inhibitory concentration (IC50) was obtained by calculating as the ratio of OD550 of the test group sample to that of the control group sample.

[2] = system: releasing of lysozomal enzyme from the neutrocytes of rat; test: Inhibitory effect against the releasing of lysozomal enzyme from the neutrocytes of rat; type: cell-based; settings: rat neutrocytes 5×10^5 cells/ml; FMLP 10^-6 M + cytocharasin B 5 μg/ml; OD540
Experimental: Inhibitory effect against the releasing of lysozomal enzyme from the neutrocytes of rat
The neutrocytes of rat were samples from the abdominal cavity of rat 16 hours after the administration of 10 ml of 1% casein solution (physiological saline solution).
Reaction of the releasing of lysozomal enzyme from the neutrocytes of rat was determined by means of the method as described in an article written by T. Matsumoto, K. Takeshige and S. Minakami: Biochemical and Biophysical Research Communications, Vol. 88, No. 3, pp 974-979, (1979).
The neutrocytes being sampled were added to Hank's solution so as to make the concentration thereof as 5×10^5 cells/ml, the test compound of piperazine derivative of the present invention was added thereto to make the test group sample. On the other hand, water was added in place of the piperazine derivative of the present invention to make the control group sample. Each of the test group samples and the control group samples were subjected to pre-incubation at 37° C. for 1 minute.
As to the stimulating agents, 10^-6 M of FMLP (formylmethionyl leucyl phenylalanine) and 5 μg/ml of cytocharasin B solution were added to the test solutions. Thus obtained mixture of the solution was reacted by incubating for 15 minutes. After the incubation, the mixture of the solution was subjected to centrifugation at 2,000 rpm for 10 minutes. The supernatant (0.2 ml) was admixed with 0.5 ml of 0.1 M-acetic acid buffer solution (pH 4.5) in which 0.2 mM of phenolphthalein glucuronic acid was dissolved. Then the resulting mixture of the solution was reacted at 37° C. for 5 hours by incubation. After the reaction, 1N-NaOH solution was added to the reaction mixture so as to make the pH value thereof to pH 8 to 9, and the optical absorbance of both test group samples and control group samples were determined at 540 nm (OD540).
The 50% inhibitory concentration (IC50) values were obtained by calculation as the ratio of OD540 of the test group sample to that of the control group sample.

[3] = system: releasing of hydrogen peroxide (H2 O2) from the neutrocyte of abdominal cavity of rat; test: Inhibitory effect against the releasing of hydrogen peroxide (H2O2) from the neutrocyte of abdominal cavity of rat; type: cell-based, SD-strain rat; settings: rat neutrocytes 10^6 cells/ml; FMLP 2×10^-6 M; 37° C., 1 hour; OD610
Experimental: Inhibitory effect against the releasing of hydrogen peroxide (H2 O2) from the neutrocyte of abdominal cavity of rat
1%-Casein solution was administered to the abdominal cavity of a SD-strain rat, then 16 hours after the administration, the neutrocytes were obtained by washing the abdominal cavity. Thus obtained neutrocytes were washed with Hank's solution.
In to a reaction mixture consisting of the following ingredients:
______________________________________
HRP (Horse Radish peroxide)
HEPES [N-(2-Hydroxyethyl)pipera-
zine N'-2-ethanesulfonic acid]
Rat neutrocytes 10^6 cells/ml
the test compound was added, then the whole mixture was incubated at 37° C. for 1 hour, and the mixture was subjected to a centrifugal separation at 2,000 rpm for minutes. After the centrifugal separation, 1 ml of the supernatant was sampled and 10 μl of 1N-NaOH aqueous solution was added thereto. Then, the optical absorbance at 610 nm (OD610) of the supernatant was determined by means of using a spectro-photometer.
The IC50 (50% inhibitory concentration) of the test compound was obtained by calculating as the ratio of OD610 of the test group sample to that of the control group sample.

Structure (SMILES): COc1cc(C[C@@H]2NC(=O)[C@H](CC(C)C)N(O)C2=O)cc(OC)c1OC (relative stereo) [Example 15]
- IC50 [3]: < 3 µg/mL

Structure (SMILES): COc1cc(C[C@@H]2NC(=O)[C@@H](CC(C)C)N(O)C2=O)cc(OC)c1OC (relative stereo) [Example 16]
- IC50 [1]: 30 µg/mL (≈ 81.9 µM)
- IC50 [3]: < 3 µg/mL

Structure (SMILES): COc1cc(C[C@@H]2NC(=O)[C@H](CC(C)C)N(O)C2=O)cc(OC)c1O (relative stereo) [Example 17]
- IC50 [3]: < 3 µg/mL

Structure (SMILES): COc1ccc(C[C@@H]2NC(=O)[C@H](CC(C)C)N(O)C2=O)c(OC)c1 (relative stereo) [Example 18]
- IC50 [3]: 5 µg/mL (≈ 14.9 µM)

Structure (SMILES): COc1ccc(C[C@@H]2NC(=O)[C@@H](CC(C)C)N(O)C2=O)c(OC)c1 (relative stereo) [Example 19]
- IC50 [1]: 30 µg/mL (≈ 89.2 µM)
- IC50 [3]: 5 µg/mL (≈ 14.9 µM)

Structure (SMILES): CC(C)C[C@H]1C(=O)N[C@@H](Cc2ccccc2)C(=O)N1O [Example 9, (3S, 6s)-3-benzyl-1-hydroxy-6-isobutylpiperazine-2,5-dione]
- IC50 [3]: < 6 µg/mL

Structure (SMILES): CC(C)C[C@@H]1C(=O)N[C@@H](Cc2ccccc2)C(=O)N1O [Example 10, (3S,6R)-3-Benzyl-1-hydroxy-6-isobutylpiperazine-2,5-dione]
- IC50 [1]: 18 µg/mL (≈ 65.1 µM)

Structure (SMILES): CC(C)C[C@@H]1C(=O)N[C@@H](Cc2ccc(O)cc2)C(=O)N1O [Example 11]
- IC50 [3]: 6 µg/mL (≈ 20.5 µM)

Structure (SMILES): CC(C)C[C@H]1C(=O)N[C@@H](Cc2cc(Cl)c(O)c(Cl)c2)C(=O)N1O [Example 20]
- IC50 [1]: 30 µg/mL (≈ 83.1 µM)
- IC50 [2]: 30 µg/mL

Structure (SMILES): CC(C)C[C@@H]1C(=O)N[C@@H](Cc2cc(Cl)c(O)c(Cl)c2)C(=O)N1O [Example 21]
- IC50 [3]: 10 µg/mL (≈ 27.7 µM)

Structure (SMILES): CC(C)C[C@@H]1NC(=O)[C@H](Cc2c[nH]c3ccccc23)N(O)C1=O [Example 47, (3S,6S)-1-Hydroxy-6-(3-indolylmethyl)-3-isobutylpiperazine-2,5-dione]
- IC50 [1]: 10 µg/mL (≈ 31.7 µM)

Structure (SMILES): CSCC[C@@H]1NC(=O)[C@@H](Cc2c[nH]c3ccccc23)N(O)C1=O [Example 52]
- IC50 [1]: 6 µg/mL (≈ 18 µM)

Structure (SMILES): O=C1N[C@@H](COCc2ccccc2)C(=O)N(O)[C@H]1Cc1c[nH]c2ccccc12 [Example 53]
- IC50 [1]: 30 µg/mL (≈ 79.1 µM)

Further lines, with some results ahead:

- IC50 [2]: 3 µg/mL
Structure (SMILES): CC(C)C[C@H]1C(=O)N[C@](Cc2ccccc2)(C(=O)Nc2nc3ccccc3s2)C(=O)N1O (racemic) [Example 27, (3RS,6SR)-3-(benzothiazol-2-yl)carbamoyl-3-benzyl-1-hydroxy-6-isobutylpiperazine-2,5-dione]
- IC50 [1]: 0.25 µg/mL (≈ 0.552 µM)

- IC50 [2]: 2 µg/mL
- IC50 [3]: 5 µg/mL (≈ 13.8 µM)
Structure (SMILES): COc1cccc(CNC(=O)[C@@]2(C)NC(=O)[C@H](CC(C)C)N(O)C2=O)c1 (racemic) [Example 29, (3RS,6SR)-1-hydroxy-6-isobutyl-3-[N-(3-methoxybenzyl)]carbamoyl-3-methylpiperazine-2,5-dione]
- IC50 [1]: 3 µg/mL (≈ 8.26 µM)

- IC50 [2]: 3 µg/mL
Structure (SMILES): COc1cccc(CNC(=O)[C@]2(Cc3ccccc3)NC(=O)[C@@H](CC(C)C)N(O)C2=O)c1 (relative stereo) [Example 28]
- IC50 [1]: 3 µg/mL (≈ 6.83 µM)

- IC50 [3]: 3 µg/mL (≈ 9.05 µM)
Structure (SMILES): CCOC(=O)[C@H]1NC(=O)[C@@H](Cc2c[nH]c3ccccc23)N(O)C1=O (relative stereo) [Example 55]

- IC50 [3]: 3 µg/mL (≈ 8.42 µM)
Structure (SMILES): CC(C)C[C@@H]1C(=O)N[C@@H](Cc2cn(Cc3ccccc3)cn2)C(=O)N1O [Example 26]
- IC50 [1]: 6 µg/mL (≈ 16.8 µM)

- IC50 [3]: < 3 µg/mL
Structure (SMILES): CC(C)C[C@@H]1NC(=O)[C@@H](Cc2c[nH]c3ccccc23)N(O)C1=O [Example 48, (3S, 6R)-1-Hydroxy-6-(3-indolylmethyl)-3-isobutylpiperazine-2,5-dione]

- IC50 [3]: < 3 µg/mL
Structure (SMILES): O=C1N[C@@H](Cc2ccccc2)C(=O)N(O)[C@H]1Cc1c[nH]c2ccccc12 [Example 49]
- IC50 [1]: 10 µg/mL (≈ 28.6 µM)

- IC50 [3]: < 3 µg/mL
Structure (SMILES): O=C1N[C@@H](Cc2ccccc2)C(=O)N(O)[C@@H]1Cc1c[nH]c2ccccc12 [Example 50]

- IC50 [3]: 3 µg/mL (≈ 9 µM)
Structure (SMILES): CSCC[C@@H]1NC(=O)[C@H](Cc2c[nH]c3ccccc23)N(O)C1=O [Example 51]
- IC50 [1]: 3 µg/mL (≈ 9 µM)

- IC50 [3]: 3 µg/mL (≈ 7.91 µM)
Structure (SMILES): O=C1N[C@@H](COCc2ccccc2)C(=O)N(O)[C@@H]1Cc1c[nH]c2ccccc12 [Example 54]

- IC50 [3]: 6 µg/mL (≈ 16.4 µM)
Structure (SMILES): O=C1N[C@@H](Cc2ccc(O)cc2)C(=O)N(O)[C@H]1Cc1c[nH]c2ccccc12 [Example 60]
- IC50 [1]: 10 µg/mL (≈ 27.4 µM)

- IC50 [3]: < 3 µg/mL
Structure (SMILES): O=C1[C@@H]2CCCN2C(=O)[C@H](Cc2c[nH]c3ccccc23)N1O [Example 64]
